Laboratory results from patent publication US20230310634A1, “ANTI-HUMAN VISTA ANTIBODIES AND USE THEREOF” (IMMUNEXT, INC., priority 2020, published 2023).
“Also recorded” adds a separate entry of the source.

Experiments:
[1] = tested on: FKBP5; experiment: FKBP5 transcription in peritoneal resident macrophages and spleen monocytes after in vivo treatment; parameters: species or system mice; conditions: from other studies (previous example)
Method: ADCs were then injected from 17 h to 7 days before mouse euthanasia and cell isolation.
After euthanasia, mice were injected in the peritoneal cavity with 7 ml of PBS/0.5% BSA/2 mM EDTA. After a brief massage of the peritoneum, a small incision was performed and the peritoneal lavage collected. PRM were isolated using negative selection (Miltenyi kit, ref 130-110-434). Spleen were dissected and dissociated mechanically; monocytes were isolated using […] (Stem Cell, EasySep™ Mouse CD11 b Positive Selection Kit II).
Cell pellets from different tissues were resuspended in 0.4 ml RNeasy lysis buffer from RNeasy Plus Mini kit (Qiagen, PN: 74136) and homogenize with 20G needle for 5 times. RNA was isolated following manufacturer's instructions and RNA eluted in […] H2O (RNase/DNase free). RNA concentration was assessed on Nanodrop.
Reverse transcription was done using Taqman reverse transcription reagents (#N8080234) and following manufacturer's instructions. Quantitative Real-Time PCR was done using Taqman master mix 2× kit (#4369016) and Taqman primers for mouse FKBP5 (Mm00487401_m1), and mouse HPRT as housekeeping gene (Mm446968_m1) and run on a QuantStudio3 from Applied Biosystem. […]

[2] = Plasma corticosterone levels after repeated treatment; type: in vivo, mice; conditions: bleed on day 5
Method: Based on the foregoing we assessed the impact of long-term treatment with an exemplary antibody drug conjugate (ADC) INX201J, and an anti-human VISTA monoclonal antibody linked to a glucocorticoid (GC) payload, on the HPA axis, specifically the corticosterone basal levels. […] The experiment was performed in female mice that were first acclimated for a week to a specific handler that would carry subsequently all injections and bleed to limit stress-induced changes in basal level of GC.
On day 5, mice were bled and their corticosterone levels assessed by ELISA.
The experiment was performed in female hVISTA KI mice. […] A control group was included that received daily PBS injections. On day 5, mice were bled and their plasma corticosterone levels assessed by ELISA.
The ELISA was conducted following the manufacturer's included protocol using Arbor Assays (cat #K014-H5) Corticosterone 5 pack ELISA Kit.

[3] = tested on: LPS-induced cytokine release; experiment: LPS-induced systemic inflammation, plasma cytokines post LPS; parameters: species or system mice; conditions: mouse, in vivo
Method: In order to evaluate the ADC potential efficacy in auto-immune diseases, we used the short-term model of LPS-induced systemic inflammation. Intraperitoneal (i.p.) injection of lipopolysaccharide (LPS) is widely used as a model for acute immune response—both local and systemic—in mice.
Blood was collected at 2 or 4 h post LPS i.p. injection, and plasma isolated for cytokine analyses.
Mice were dosed at 0.5 mg/Kg.
For ADC-INVIVO-30 and 35, the Immune Monitoring Lab (IML, Shared Resources at Dartmouth-Hitchcock Norris Cotton Cancer Center) performed the analyses.
ELISAs were conducted following the manufacturer's included protocol.
Cytokine data are censored when below a […] threshold for IL-12p40 and/or […] threshold for TNF-α as it indicates a failed LPS injection.

[4] = tested on: peritoneal resident macrophages; experiment: In vivo treatment / ex vivo activation of peritoneal resident macrophages (TNFα, IL-6); parameters: species or system mice; conditions: Experiment 9, 0.2 mg/Kg of GC payload, day −7, supernatants at 24 h
[5] = tested on: FKBP5; experiment: FKBP5 transcriptional activation in isolated human Tregs (qRT-PCR); type: cell-based; conditions: Experiment 3; 20 nM payload or molar equivalent; 2 donors
Source text: (§1) To monitor/confirm GC delivery and activity, we measured by quantitative Real Time PCR (qRT-PCR) the transcriptional activation of FKBP5 that is a direct and robust biomarker of glucocorticoid activity (JCEM 101: 4305-4312, 2016). We conducted this assessment on isolated human monocytes, regulatory T cells (T regs) and B cells following in vitro treatment with ADCs.
For monocytes vs B cell analyses, one blood donor collection was used for the single drug concentration experiment; blood from a separate single donor collection was used to assess drug dose response. For the regulatory T cell (Treg) analysis, blood from two separate donors was used.
(§2) The various immune populations were isolated using different cell isolation kits and following manufacturer instructions: • EasySep Human monocyte enrichment kit without CD16 depletion (StemCell cat #19058) • Pan B cell isolation kit, human (Miltenyi Biotec, 130-101-638) • EasySep™ Human CD4^+ CD127 low CD49d− regulatory T cell enrichment Kit (StemCell cat #19232) […]
(§3) After one wash with PBS, RNA was isolated from cell pellets using either the RNeasy Plus Mini kit (Qiagen, PN: 74136) or NucleoSpin RNA Plus (Macherey-Nagel #740984.250). […] RNA concentration was assessed by UV spectroscopy using a Nanodrop 2000. […]
(§4) Quantitative Real-Time PCR was done using Taqman master mix 2× kit (#4369016) and run on a QuantStudio3 from Applied Biosystem. […]

[6] = tested on: LPS stimulated human PBMCs; experiment: In vitro potency of steroid payloads in LPS stimulated human PBMCs (IL-1β, IL-6 ELISA); type: cell-based
[7] = mouse, in vivo; cited from earlier work
[8] = tested on: FKBP5; experiment: FKBP5 transcriptional activation in isolated human monocytes (qRT-PCR); type: cell-based; conditions: Experiment 1; 20 nM payload or molar equivalent; 1 day; relative to no-treatment control
Source text: as §1
(§5) Monocytes or B cells were isolated from healthy donor blood samples and treated with free steroid, anti-VISTA conjugated steroid, or conjugated isotype control. RNA was isolated, and change in FKBP5 transcript level assessed by qPCR.
as §2, §3, §4

[9] = tested on: FKBP5; experiment: FKBP5 transcriptional activation in isolated human B cells (qRT-PCR); type: cell-based; conditions: Experiment 1; 20 nM payload or molar equivalent; 1 day; relative to no-treatment control
Source text: as §1, §5, §2, §3, §4

For `C[C@@H]1C[C@H]2[C@@H]3CCC4=CC(=O)C=C[C@]4(C)[C@@]3(F)[C@@H](O)C[C@]2(C)[C@@]1(O)C(=O)CO` [Dex, Dexamethasone], the pharmacodynamic range [1] was under 24 h, the “basal plasma corticosterone levels” value ([2]; Dex 0.2 mg/Kg daily for 4 days) was “limited though significant impact” and the “basal plasma corticosterone levels” value ([2]; Dex 2 mg/Kg daily for 4 days) was “dramatically decreased”.

In the case of `C[C@]12C=CC(=O)C=C1CC[C@@H]1[C@@H]2[C@@H](O)C[C@@]2(C)[C@H]1C[C@H]1O[C@@H](C34CC(Cc5cccc(NC(=O)[C@H](CCC(=O)O)NC(=O)CNC(=O)CBr)c5)(C3)C4)O[C@]12C(=O)CO` [INX O, (S)-4-(2-(2-bromoacetamido)acetamido)-5-((3-((3-((6aR,6bS,7S,8aS,8bS,10R,11aR,12aS,12bS)-7-hydroxy-8b-(2-hydroxyacetyl)-6a,8a-dimethyl-4-oxo-2,4,6a,6b,7,8,8a,8b,11a,12,12a,12b-dodecahydro-1H-naphtho[2′,1′:4,5]indeno[1,2-d][1,3]dioxol-10-yl)bicyclo[1.1.1]pentan-1-yl)methyl)phenyl)amino)-5-oxopentanoic acid], the “potency of conjugated linker/payload in the short term LPS activation model (conclusions)” value [3] is reported as “reduced potency” and the “long term potency in controlling PRM cytokine responses (TNFα, IL-6)” value (from here on “long term potency”) [4] is reported as “little and non-significant impact; also recorded: very limited potency”.

In the case of `C[C@]12C=CC(=O)C=C1CC[C@@H]1[C@@H]2[C@@H](O)C[C@@]2(C)[C@H]1C[C@H]1O[C@@H](c3ccc(CC4CC5(C4)CC(NC(=O)[C@H](CCC(=O)O)NC(=O)CNC(=O)CBr)C5)cc3)O[C@]12C(=O)CO` (stereo partly drawn) [INX V, (S)-4-(2-(2-bromoacetamido)acetamido)-5-((6-(4-((6aR,6bS,7S,8aS,8bS,10R,11 aR,12aS,12bS)-7-hydroxy-8b-(2-hydroxyacetyl)-6a,8a-dimethyl-4-oxo-2,4,6a,6b,7,8,8a,8b,11a,12,12a,12b-dodecahydro-1H-naphtho[2′,1′:4,5]indeno[1,2-d][1,3]dioxol-10-yl)benzyl)spiro[3.3]heptan-2-yl)amino)-5-oxopentanoic acid], the “long term potency” value [4] is reported as “remarkable long term potency”.

For `C[C@]12C=CC(=O)C=C1CC[C@@H]1[C@@H]2[C@@H](O)C[C@@]2(C)[C@H]1C[C@H]1O[C@@H](c3ccc(CC45CC(NC(=O)[C@H](CCCCN)NC(=O)CNC(=O)CBr)(C4)C5)cc3)O[C@]12C(=O)CO` [INX W, (S)-6-amino-2-(2-(2-bromoacetamido)acetamido)-N-(3-(4-((6aR,6bS,7S,8aS,8bS,10R,11aR,12aS,12bS)-7-hydroxy-8b-(2-hydroxyacetyl)-6a,8a-dimethyl-4-oxo-2,4,6a,6b,7,8,8a,8b,11a,12,12a,12b-dodecahydro-1H-naphtho[2′,1′:4,5]indeno[1,2-d][1,3]dioxol-10-yl)benzyl)bicycle [1.1.1]pentan-1-yl)hexanamide], the “potency of conjugated linker/payload in the short term LPS activation model (conclusions)” value [3] was “efficacious” and the “long term potency” value [4] was “remarkable long term potency; also recorded: increased potency relative to INX P and INX R”.

With `C[C@]12C=CC(=O)C=C1CC[C@@H]1[C@@H]2[C@@H](O)C[C@@]2(C)[C@H]1C[C@H]1O[C@@H](c3ccc(CC45CC(N)(C4)C5)cc3)O[C@]12C(=O)CO` [INX-SM-3, (6aR,6bS,7S,8aS,8bS,10R,11aR,12aS,12bS)-10-(4-((3-aminobicyclo[1.1.1]pentan-1-yl)methyl)phenyl)-7-hydroxy-8b-(2-hydroxyacetyl)-6a,8a-dimethyl-1,2,6a,6b,7,8,8a,8b,11a,12,12a,12b-dodecahydro-4H-naphtho[2′,1′:4,5]indeno[1,2-d][1,3]dioxol-4-one] the “FKBP5 transcription in Tregs” value [5] was “increased FKBP5 transcription”, the “steroid potency as free payloads in LPS-activated human PBMCS (conclusions)” value [6] was “varying degrees of dose dependent steroid potency” and the “potency relative to the other compounds of the experiment” value ([6]; 1 ng/mL LPS, 24 hr) was “most potent compound among these three; also recorded: most potent compound among these compounds tested”. The “IL-1β and IL-6 production” value ([6]; Experiment 1, 1000-1 nM, 1 ng/mL LPS, 24 hr, n=1 donor) was “inhibit both IL-1β and IL-6 production” and the IL-1β production ([6]; Experiment 2, 1000-1 nM, 1 ng/mL LPS, 24 hr, n=1 donor) was “show inhibition in IL-1β production”.

In the case of `C[C@@H]1C[C@H]2[C@@H]3CCC4=CC(=O)C=C[C@]4(C)[C@@]3(F)[C@@H](O)C[C@]2(C)[C@@]1(O)C(=O)CO` [dexamethasone], the “toxicity in this IBD model (literature)” value [7] is given as “causes toxicity in this IBD model”.

With `C[C@]12C=CC(=O)C=C1CC[C@@H]1[C@@H]2[C@@H](O)C[C@@]2(C)[C@H]1C[C@H]1O[C@@H](c3ccc(Cc4cccc(N)c4)cc3)O[C@]12C(=O)CO` [free J payload] the “FKBP5 transcription in monocytes” value [8] was “robust increase in FKBP5 transcription” and the “FKBP5 transcription in B cells” value [9] was “robust increase in FKBP5 transcription”.
